Test results published in patent publication US20110207726A1, “Inhibitors of Human Cathepsin L, Cathepsin B, and Cathepsin S” (The Trustees of the University of Pennsylvania, priority 2008, published 2011).
Read-outs that look alike come from different tables or passages of the source.

Key:
Format in all cases: biochemical
Human spleen cathepsin S = target: T1, Human spleen cathepsin S (Homo sapiens, UniProt P25774); test: Cathepsin S assay, IC50 determination
T1 construct: Human spleen cathepsin S (Calbiochem 219344, 40 ng/mL); purchased Calbiochem 219344; host or cells: human spleen
T1 sequence (P25774 115-331): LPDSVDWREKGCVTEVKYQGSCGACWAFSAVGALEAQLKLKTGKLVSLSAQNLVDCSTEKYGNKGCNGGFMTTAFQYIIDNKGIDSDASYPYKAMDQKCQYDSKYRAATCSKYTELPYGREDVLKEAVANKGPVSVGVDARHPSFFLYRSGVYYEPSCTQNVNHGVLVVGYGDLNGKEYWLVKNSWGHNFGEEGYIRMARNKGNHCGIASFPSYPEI
Protocol: (§1) Human spleen cathepsin S (Calbiochem 219344, 40 ng/mL) was assayed using 15 microM Z-Phe-Arg-AMC substrate. Human liver cathepsin B (Calbiochem 219362, 65 ng/mL) was assayed using 15 microM Z-Arg-Arg-AMC substrate (Bachem I-1135). All reactions were performed in 20 mM sodium acetate buffer containing 1 mM EDTA and 5 mM cysteine, pH 5.5.
(§2) Compounds were serially diluted in DMSO and transferred into a 96-well Corning 3686 assay microplate to give a 16-point two-fold serial dilution dose response ranging from 25 microM to 760 pM. Human liver cathepsin L (Calbiochem 219402) was activated by incubating with assay buffer for 30 min. Upon activation, cathepsin L (300 pM, 8.7 ng/mL) was incubated with 1 microM Z-Phe-Arg-AMC substrate (Sigma C9521) and test compound in […] of assay buffer for 1 hour at room temperature. Fluorescence of AMC released by enzyme-catalyzed hydrolysis of Z-Phe-Arg-AMC was read on a PerkinElmer Envision microplate reader (excitation 355 nm, emission 460 nm). Data were scaled using internal controls and fitted to a four-parameter logistic model (IDBS XLfit equation 205) to obtain IC50 values in triplicate.
(§3) Compound No. 1 was assayed for inhibition against papain and cathepsins B, G, K, S, and V. Papain from Carica papaya (Calbiochem 5125, 11 ng/mL), human cathepsin K (Calbiochem 342001, 35 ng/mL), human spleen cathepsin S (Calbiochem 219344, 40 ng/mL), and human cathepsin V (Calbiochem 219467, 39 ng/ml) were assayed using Z-Phe-Arg-AMC substrate at 20 μM, 20 μM, 15 μM, and 1 μM, respectively. Human liver cathepsin B (Calbiochem 219362, 65 ng/mL) was assayed using 15 μM Z-Arg-Arg-AMC substrate (Bachem I-1135). Human neutrophil cathepsin G (Calbiochem 219373, 4.2 μg/mL) was assayed using 15 μM Suc-Ala-Ala-Pro-Phe-AMC substrate (Sigma S9761). All reactions were performed in 20 mM sodium acetate buffer containing 5 mM cysteine and 1 mM EDTA, pH 5.5. Reaction progress was monitored using the Envision microplate reader. IC50 values were measured in triplicate.

human liver cathepsin L = target: T2, human liver cathepsin L (Homo sapiens, UniProt P07711); test: Cathepsin L assay, IC50 determination
T2 construct: 8.7 ng/mL human liver cathepsin L (Calbiochem 219402); purchased Calbiochem 219402; host or cells: human liver
T2 sequence (P07711 114-288 limits assumed): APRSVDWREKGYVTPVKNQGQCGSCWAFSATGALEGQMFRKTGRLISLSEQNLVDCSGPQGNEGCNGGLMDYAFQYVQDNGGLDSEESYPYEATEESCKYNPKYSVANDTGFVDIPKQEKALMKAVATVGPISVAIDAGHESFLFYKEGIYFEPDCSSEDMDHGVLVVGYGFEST
T2 sequence (P07711 292-333 limits assumed): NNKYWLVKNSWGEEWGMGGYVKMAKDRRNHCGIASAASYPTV
Protocol: Assay buffer consisted of 20 mM sodium acetate, 1 mM ethylenediaminetetraacetic acid (EDTA) and 5 mM cysteine, pH 5.5. Cathepsin L was incubated in assay buffer for 30 minutes prior to dispensing into wells to allow for efficient reduction of the active site cysteine required for full enzymatic activity.
Upon activation, cathepsin L (300 pM, 8.7 ng/mL) was incubated with 1 microM Z-Phe-Arg-AMC substrate (Sigma C9521) and test compound in […] of assay buffer for 1 hour at room temperature.
All reactions were performed in 20 mM sodium acetate buffer containing 5 mM cysteine and 1 mM EDTA, pH 5.5. Reaction progress was monitored using the Envision microplate reader. IC50 values were measured in triplicate.

Human liver cathepsin B = target: T3, Human liver cathepsin B (Homo sapiens, UniProt P07858); test: Cathepsin B assay, IC50 determination
T3 construct: Human liver cathepsin B (Calbiochem 219362, 65 ng/mL); purchased Calbiochem 219362; host or cells: human liver
Protocol: as §1, §2, §3

SMILES | IC50 (Human spleen cathepsin S; Table 1, read-out: IC50 Cat S) [µM] | IC50 (human liver cathepsin L; Table 1, read-out: IC50 Cat L) [µM] | IC50 (Human liver cathepsin B; Table 1, read-out: IC50 Cat B) [µM] | IC50 (Human spleen cathepsin S; Tables 2-11, read-out: Cat S) [µM] | IC50 (human liver cathepsin L; Tables 2-11, read-out: Cat L) [µM] | IC50 (Human liver cathepsin B; Tables 2-11, read-out: Cat B) [µM]
CCc1ccccc1NC(=O)CSC(=O)NNC(=O)[C@H](C)NC(=O)OC(C)(C)C [Compound No. 25] | > 25 | ≥ 25 | > 25 | – | – | –
CC(C)(C)OC(=O)N[C@@H](Cc1c[nH]c2ccccc12)C(=O)NNC(=O)SCC(=O)N1CCc2ccccc2C1 [Compound No. 12] | 0.53 | 0.019 | 3.25 | – | – | –
CC(C)(C)OC(=O)N[C@@H](Cc1c[nH]c2ccccc12)C(=O)NNC(=O)[C@@H](Cc1c[nH]c2ccccc12)NC(=O)OC(C)(C)C [Compound No. 117] | – | – | – | ≥ 25 | ≥ 25 | ≥ 25
CCc1ccccc1NCCSC(=O)NNC(=O)[C@H](Cc1ccccc1)NC(=O)OC(C)(C)C [Compound No. 35] | > 25 | > 25 | > 25 | – | – | –
CCc1ccccc1NC(=O)CSC(=O)NNC(=O)[C@H](COCc1ccccc1)NC(=O)OC(C)(C)C [Compound No. 46] | 2.15 | 1.27 | 14.3 | – | – | –
CC(C)(C)OC(=O)N[C@H](Cc1c[nH]c2ccccc12)C(=O)NN [Compound No. 119] | – | – | – | ≥ 25 | ≥ 25 | ≥ 25
C[C@@H](CO)C(=O)NNC(=O)SCC(=O)N1CCCc2ccccc21 [Compound No. 70] | > 25 | > 25 | > 25 | – | – | –
CCc1ccccc1NC(=O)CSC(=O)NNC(=O)CCc1c[nH]c2ccccc12 [Compound No. 73] | > 25 | > 25 | > 25 | – | – | –
CC(C)(C)OC(=O)N[C@@H](Cc1c[nH]c2ccccc12)C(=O)NN [Compound No. 118] | – | – | – | ≥ 25 | ≥ 25 | ≥ 25
CC(C)(C)OC(=O)N[C@@H](Cc1ccc(OCc2ccccc2)cc1)C(=O)NNC(=O)SCC(=O)N1CCc2ccccc21 [Compound No. 40] | 8 | 0.7 | 3.12 | – | – | –
C[C@H](CO)C(=O)NNC(=O)SCC(=O)N1CCCc2ccccc21 [Compound No. 68] | > 25 | > 25 | > 25 | – | – | –
CCc1ccccc1NC(=O)CSC(=O)NNC(=O)CNC(=O)OC(C)(C)C [Compound No. 64] | > 25 | > 25 | ≥ 25 | – | – | –
CSCC[C@H](NC(=O)OC(C)(C)C)C(=O)NNC(=S)SCC(=O)N1CCc2ccccc21 [Compound No. 126] | – | – | – | ≥ 25 | ≥ 25 | ≥ 25

The remaining lines, values ahead:

IC50 (Human spleen cathepsin S; Table 1, read-out: IC50 Cat S) [µM] | IC50 (human liver cathepsin L; Table 1, read-out: IC50 Cat L) [µM] | IC50 (Human liver cathepsin B; Table 1, read-out: IC50 Cat B) [µM] | IC50 (Human spleen cathepsin S; Tables 2-11, read-out: Cat S) [µM] | IC50 (human liver cathepsin L; Tables 2-11, read-out: Cat L) [µM] | IC50 (Human liver cathepsin B; Tables 2-11, read-out: Cat B) [µM] | SMILES
2.08 | 0.59 | 2.77 | – | – | – | CC(C)(C)OC(=O)N[C@@H](Cc1ccc(OCc2ccccc2)cc1)C(=O)NNC(=O)SCC(=O)Nc1ccccc1[N+](=O)[O-] [Compound No. 38]
0.63 | 1.34 | 2.21 | – | – | – | CSCC[C@H](NC(=O)OC(C)(C)C)C(=O)NNC(=O)SCC(=O)N1CCCc2ccccc21 [Compound No. 18]
0.92 | 0.38 | > 25 | – | – | – | CC(C)(C)OC(=O)N[C@@H](COCc1ccccc1)C(=O)NNC(=O)SCC(=O)NCCc1c[nH]c2ccccc12 [Compound No. 53]
– | – | – | ≥ 25 | ≥ 25 | ≥ 25 | CC(C)(C)OC(=O)N[C@@H](Cc1c[nH]c2ccccc12)C(=O)N/N=C/c1ccc(Cl)cc1 [Compound No. 124]
– | – | – | ≥ 25 | ≥ 25 | ≥ 25 | CCc1ccccc1NC(=O)CCC(=O)NNC(=O)[C@H](Cc1c[nH]c2ccccc12)NC(=O)OC(C)(C)C [Compound No. 113]
2.15 | 3.67 | > 25 | – | – | – | CCc1ccccc1NC(=O)CSC(=O)NNC(=O)[C@H](CCCNC(=N)N[N+](=O)[O-])NC(=O)OC(C)(C)C [Compound No. 62]
2.83 | 0.83 | 5.08 | – | – | – | CCc1ccccc1NC(=O)CSC(=O)NNC(=O)[C@H](Cc1ccc(OCc2ccccc2)cc1)NC(=O)OC(C)(C)C [Compound No. 36]
5.89 | 17.9 | > 25 | – | – | – | CC(C)(C)OC(=O)N[C@H](COCc1ccccc1)C(=O)NNC(=O)SCC(=O)N1CCCc2ccccc21 [Compound No. 49]
4.24 | 0.68 | 0.63 | – | – | – | CC(C)[C@H](NC(=O)OC(C)(C)C)C(=O)NNC(=O)SCC(=O)N1CCCc2ccccc21 [Compound No. 22]
– | – | – | ≥ 25 | ≥ 25 | ≥ 25 | CC(C)(C)OC(=O)N[C@@H](Cc1c[nH]c2ccccc12)C(=O)NOCC(=O)N1CCCc2ccccc21 [Compound No. 120]
> 25 | > 25 | > 25 | – | – | – | CCc1ccccc1NC(=O)CSC(=O)NNC(=O)C[C@H](C)NC(=O)OC(C)(C)C [Compound No. 74]
1.64 | 0.43 | > 25 | – | – | – | CCOC(=O)c1cccc(NC(=O)CSC(=O)NNC(=O)[C@H](COCc2ccccc2)NC(=O)OC(C)(C)C)c1 [Compound No. 56]
0.31 | 0.33 | 2.42 | – | – | – | CSCC[C@H](NC(=O)OC(C)(C)C)C(=O)NNC(=O)SCC(=O)NCCc1c[nH]c2ccccc12 [Compound No. 20]
5.15 | > 25 | 4.35 | – | – | – | CC(OCc1ccccc1)[C@H](NC(=O)OC(C)(C)C)C(=O)NNC(=O)SCC(=O)N1CCCc2ccccc21 (stereo partly drawn) [Compound No. 45]
3.74 | 0.66 | 0.87 | – | – | – | CCc1ccccc1NC(=O)CSC(=O)NNC(=O)[C@@H](NC(=O)OC(C)(C)C)C(C)C [Compound No. 21]
3.01 | 6.95 | > 25 | – | – | – | CSCC[C@@H](CC(=O)NNC(=O)SCC(=O)N1CCCc2ccccc21)NC(=O)OC(C)(C)C [Compound No. 77]
0.41 | 0.52 | 2.31 | – | – | – | CSCC[C@H](NC(=O)OC(C)(C)C)C(=O)NNC(=O)SCC(=O)N1CCc2ccccc2C1 [Compound No. 19]
> 25 | > 25 | > 25 | – | – | – | CCc1ccccc1NC(=O)CSC(=O)NNC(=O)[C@H](C)CO [Compound No. 67]
– | – | – | 13 | 2.34 | ≥ 25 | CC(C)(C)OC(=O)N[C@@H](Cc1c[nH]c2ccccc12)C(=O)NNC(=O)NCC(=O)N1CCCc2ccccc21 [Compound No. 125]
